± gives the expanded uncertainty stated by the source.
Conditions: Liquid, Vibrating tube method

| Compound | mass density (298.15 K) [kg/m3] | mass density (303.15 K) [kg/m3] | mass density (308.15 K) [kg/m3] | mass density (313.15 K) [kg/m3] | mass density (323.15 K) [kg/m3] | mass density (333.15 K) [kg/m3] | mass density (343.15 K) [kg/m3] | mass density (353.15 K) [kg/m3] |
| --- | --- | --- | --- | --- | --- | --- | --- | --- |
| CCCCn1cc[n+](C)c1.F[P-](F)(F)(F)(F)F [1-butyl-3-methylimidazolium hexafluorophosphate] | 1366.57 ± 0.55 | 1362.23 ± 0.54 | 1357.92 ± 0.54 | 1353.63 ± 0.53 | 1345.33 ± 0.53 | – | – | – |
| CCCCn1cc[n+](C)c1.F[B-](F)(F)F [1-butyl-3-methylimidazolium tetrafluoroborate] | 1192.03 ± 0.39 | 1188.38 ± 0.39 | – | 1181.25 ± 0.38 | 1174.18 ± 0.37 | 1167.09 ± 0.37 | 1160.17 ± 0.36 | 1152.63 ± 0.36 |
